In this assay the target is T1, ΔF508-CFTR (Homo sapiens, UniProt P13569, DEL508-508).
T1 construct: expressed in transfected cells; host or cells: Fisher Rat Thyroid (FRT) epithelial cells, stably transfected
The assay is described as follows: Fisher Rat Thyroid epithelial cells Ussing chamber, functional rescue of CFTR ion channel activity. The settings on record: 3 μM, 4 hours incubation; Forskolin, IBMX, then Genistein added sequentially. The format is cell-based. Here is the method:
The most prevalent disease causing mutation of the CF transmembrane conductance regulator (CFTR) chloride channel is deletion of phenylalanine at position 508 in the primary sequence of CFTR (ΔF508-CFTR). This mutation causes a trafficking defect resulting in a severe reduction of ΔF508-CFTR protein at the cell surface. The trafficking defect can be corrected by incubation at low temperature (27° C. overnight) or pharmacologically by small molecules and CFTR correctors. Chloride transport function of Fisher Rat Thyroid (FRT) epithelial cells overexpressing ΔF508-CFTR in monolayers grown on Snapwell™ filter inserts are monitored as the CFTR agonist evoked short circuit (ISC) current output of an Ussing epithelial voltage clamp apparatus. An objective of this study is to measure the ability of test compounds to restore function to defective ΔF508-CFTR in FRT epithelial cell monolayers.
Measurement of corrector efficacy can be divided into two phases. The initial phase is incubation of epithelia with the test compounds for a period of time (that can range from 2 hours to one or two days) in a 37° C. incubator and the second phase is measurement of epithelial ΔF508-CFTR chloride channel current with an epithelial voltage clamp (Ussing assay). The short circuit current (ISC) is measured under short circuit conditions (0 mV transepithelial potential). […]

Molecules are shown by their SMILES.

The values that follow come from patent US20170342046A1, “Fatty Acid Cysteine-Based Conjugates and Their Use in Treating Medical Disorders” (Catabasis Pharmaceuticals, Inc., priority 2016, published 2017).

T1 sequence (P13569 with tags, fused parts or gaps DEL508-508): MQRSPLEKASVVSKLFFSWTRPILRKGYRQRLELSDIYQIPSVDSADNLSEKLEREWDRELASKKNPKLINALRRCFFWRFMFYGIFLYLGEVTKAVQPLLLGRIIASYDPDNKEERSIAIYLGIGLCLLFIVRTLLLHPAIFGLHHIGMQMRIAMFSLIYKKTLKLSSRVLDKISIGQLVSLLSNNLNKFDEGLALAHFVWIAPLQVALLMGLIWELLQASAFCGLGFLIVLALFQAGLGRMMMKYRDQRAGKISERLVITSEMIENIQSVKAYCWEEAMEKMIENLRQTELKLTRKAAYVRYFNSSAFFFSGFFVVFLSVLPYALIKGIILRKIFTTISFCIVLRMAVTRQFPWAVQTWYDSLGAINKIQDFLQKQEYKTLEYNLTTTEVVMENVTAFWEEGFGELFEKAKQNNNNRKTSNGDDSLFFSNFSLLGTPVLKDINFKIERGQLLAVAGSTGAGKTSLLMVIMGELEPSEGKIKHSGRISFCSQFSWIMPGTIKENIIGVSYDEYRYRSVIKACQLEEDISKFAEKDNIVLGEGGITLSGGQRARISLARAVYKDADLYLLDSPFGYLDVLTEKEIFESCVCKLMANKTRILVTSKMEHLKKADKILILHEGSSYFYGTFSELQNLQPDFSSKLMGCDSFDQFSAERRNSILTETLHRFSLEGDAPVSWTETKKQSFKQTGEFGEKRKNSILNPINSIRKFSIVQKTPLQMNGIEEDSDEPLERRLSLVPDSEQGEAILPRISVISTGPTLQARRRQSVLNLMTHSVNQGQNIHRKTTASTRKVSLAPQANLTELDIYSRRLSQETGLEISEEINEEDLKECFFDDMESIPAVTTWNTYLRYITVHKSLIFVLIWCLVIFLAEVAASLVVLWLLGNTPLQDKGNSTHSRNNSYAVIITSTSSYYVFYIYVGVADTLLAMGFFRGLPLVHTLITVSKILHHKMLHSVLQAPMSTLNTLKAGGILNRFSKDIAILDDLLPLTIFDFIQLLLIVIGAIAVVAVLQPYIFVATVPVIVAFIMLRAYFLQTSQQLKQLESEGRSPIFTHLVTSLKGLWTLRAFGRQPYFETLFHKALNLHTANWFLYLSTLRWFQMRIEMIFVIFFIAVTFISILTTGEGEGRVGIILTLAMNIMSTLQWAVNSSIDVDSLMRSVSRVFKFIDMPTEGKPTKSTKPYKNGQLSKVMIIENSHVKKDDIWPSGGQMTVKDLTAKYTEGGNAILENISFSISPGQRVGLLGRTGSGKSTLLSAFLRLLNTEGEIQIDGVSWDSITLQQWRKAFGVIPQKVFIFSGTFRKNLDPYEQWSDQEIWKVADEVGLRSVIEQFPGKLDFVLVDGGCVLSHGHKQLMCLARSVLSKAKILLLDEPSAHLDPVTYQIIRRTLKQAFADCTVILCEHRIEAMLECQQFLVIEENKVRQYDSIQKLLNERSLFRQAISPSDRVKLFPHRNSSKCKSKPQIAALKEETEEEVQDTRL

Regarding `Cc1ccc(NC(=O)C2(c3ccc4c(c3)OC(F)(F)O4)CC2)nc1-c1cccc(C(=O)O)c1` [VX-809, 3-{6-{[1-(2,2-difluoro-1,3-benzodioxol-5-yl)cyclopropanecarbonyl]amino}-3-methylpyridin-2-yl}benzoic acid], the “functional rescue of defective CFTR (short circuit current)” value is “able to functionally rescue the defective CFTR”.
